pIC50: −log10 of the molar value. Values after ≈ are worked out from the molar mass of the structure shown.
Legend:
S. aureus ATCC 25923 = test: Antimicrobial MIC, S. aureus; assay type: cell-based; conditions: Staphylococcus aureus, ATCC25923, mean (n = 3)
Procedure: (§1) The susceptibility of bacterial strains S. aureus (ATCC 25923), E. coli (ATCC 25922) and P. aeruginosa (ATCC 27853) to antibiotics and compounds was determined using protocols reported previously. Additional antimicrobial evaluation against MRSA (ATCC 43300), Klebsiella pneumoniae (ATCC 700603), Acinetobacter baumannii (ATCC 19606), Candida albicans (ATCC 90028) and Cryptococcus neoformans (ATCC 208821) was undertaken at the Community for Open Antimicrobial Drug Discovery at The University of Queensland (Australia) according to their standard protocols reported previously.

C. albicans ATCC 90028 = test: Antifungal MIC, C. albicans (CO-ADD); assay type: cell-based; conditions: Candida albicans, ATCC90028, mean (n = 2)
Procedure: as §1

Cytotoxicity assay = assay type: cell-based, human; conditions: human, HEK293 human embryonic kidney cells, mean (n = 2), read-out: Cytotoxicity (IC50), concentration of compound at 50% cytotoxicity
Procedure: Cytotoxicity assays were conducted using the protocols previously reported.

E. coli ATCC 25922 [1] = test: Antimicrobial MIC, E. coli; assay type: cell-based, Escherichia coli; conditions: mean (n = 3)
Procedure: as §1

P. aeruginosa ATCC 27853 [2] = test: Antimicrobial MIC, P. aeruginosa; assay type: cell-based; conditions: Pseudomonas aeruginosa, ATCC27853, mean (n = 3)
Procedure: as §1

MRSA ATCC 43300 = test: Antimicrobial MIC, MRSA (CO-ADD); assay type: cell-based, methicillin-resistant S. aureus; conditions: Staphylococcus aureus; MRSA ATCC 43300; mean (n = 2); read-out: MIC MRSA
Procedure: as §1

E. coli ATCC 25922 [3] = test: Erythromycin enhancement against E. coli; assay type: cell-based, Escherichia coli; conditions: erythromycin fixed at 10.9 µM (8 µg/mL)
Procedure: (§2) Antibiotic enhancer concentrations were determined using previously reported protocols.

P. aeruginosa ATCC 27853 [4] = test: Doxycycline enhancement against P. aeruginosa; assay type: cell-based, Pseudomonas aeruginosa; conditions: doxycycline fixed at 4.5 µM
Procedure: as §2
We then evaluated the set of analogues for the ability to enhance the antibiotic activity of doxycycline against P. aeruginosa ATCC 27853 and of erythromycin against E. coli ATCC 25922 (Table 2). In the case of doxycycline, a fixed concentration of the antibiotic of 4.5 μM, which is twenty-fold lower than the intrinsic MIC 90 μM against this organism, was used. Each of the test compounds was then evaluated at a range of concentrations varying from 3.125 to 50–100 μM, with the upper concentration dependent upon the compounds intrinsic MIC towards P. aeruginosa (Table 1). […] While the observation of cytotoxicity/hemolytic properties of 16a–c, 14f and 13f reduces our interest in these analogues, analogues 13b and 13d were identified as non-toxic and strong enhancers of the action of doxycycline towards P. aeruginosa.

human red blood cells = test: Hemolytic assay; assay type: cell-based; conditions: mean (n = 2)
Procedure: Hemolysis assays were conducted using the protocols previously reported.

[5] = system: C. neoformans ATCC 208821; test: Antifungal MIC, C. neoformans (CO-ADD); assay type: cell-based; conditions: Cryptococcus neoformans, ATCC208821, mean (n = 2)
Procedure: as §1

[6] = Escherichia coli, ATCC25922, E. coli ATCC 25922

Structure (SMILES)	MIC (S. aureus ATCC 25923) [µM]	MIC (C. albicans ATCC 90028) [µM]	pIC50 (Cytotoxicity assay)	MIC (E. coli ATCC 25922 [1]; [6]) [µM]	MIC (P. aeruginosa ATCC 27853 [2]) [µM]	MIC (MRSA ATCC 43300) [µM]	Eryth/E. c: concentration required to restore erythromycin activity (E. coli ATCC 25922 [3]) [µM]	Eryth/E. c: fold change (intrinsic MIC of test compound / combination MIC) (E. coli ATCC 25922 [3]) [fold]	Dox/P. a: concentration required to restore doxycycline activity (P. aeruginosa ATCC 27853 [4]) [µM]	Dox/P. a: fold change (intrinsic MIC of test compound / combination MIC) (P. aeruginosa ATCC 27853 [4]) [fold]	Hemolysis (HC10), concentration of compound at 10% hemolytic activity (human red blood cells) [µM]	MIC [5] [µM]	MIC (E. coli ATCC 25922 [1]; E. coli ATCC 25922) [µM]
COc1ccc(/C=C/C(=O)NCCCNCCCCNCCCNC(=O)/C=C/c2ccc(OC)cc2)cc1.O=C(O)C(F)(F)F.O=C(O)C(F)(F)F [Compound 14a, N^1,N^4-Bis(3-((E)-3-(4-methoxyphenyl)acrylamido)propyl)butane-1,4-diaminium 2,2,2-trifluoroacetate]	33.3	> 42.6	< 4.37	266	> 266	> 42.6	67	4	16.6	> 16	>42.6		
COc1ccc(/C=C/C(=O)NCCCNCCCCCCCNCCCNC(=O)/C=C/c2ccc(OC)c(Br)c2)cc1Br.O=C(O)C(F)(F)F.O=C(O)C(F)(F)F [Compound 15c, N^1,N^7-Bis(3-((E)-3-(3-bromo-4-methoxyphenyl)acrylamido)propyl)heptane-1,7-diaminium 2,2,2-trifluoroacetate]	6.57	8.4	< 4.47	26	> 210	≤ 0.26	13.1	2	26.3	> 8		≤ 0.26	
COc1ccc(/C=C/C(=O)NCCCNCCCCCCCCCCCCNCCCNC(=O)/C=C/c2ccc(OC)c(Br)c2)cc1Br.O=C(O)C(F)(F)F.O=C(O)C(F)(F)F [Compound 15f, N^1,N^12-Bis(3-((E)-3-(3-bromo-4-methoxyphenyl)acrylamido)propyl)dodecane-1,12-diaminium 2,2,2-trifluoroacetate]	6.12		5.95	6.12	> 196	≤ 0.24	6.1	1	49.0	> 4	1.17	≤ 0.24	
COc1ccc(/C=C/C(=O)NCCCNCCCCCCCCCCCCNCCCNC(=O)/C=C/c2ccc(OC)cc2)cc1.O=C(O)C(F)(F)F.O=C(O)C(F)(F)F [Compound 14f, N^1,N^12-Bis(3-((E)-3-(4-methoxyphenyl)acrylamido)propyl)dodecane-1,12-diaminium 2,2,2-trifluoroacetate]	3.62	> 37.1	4.61	7.2	232	≤ 0.29	3.62	2	7.24	32			7.24
COc1ccc(/C=C/C(=O)NCCCNCCCCCCCCCCNCCCNC(=O)/C=C/c2ccc(OC)cc2)cc1.O=C(O)C(F)(F)F.O=C(O)C(F)(F)F [Compound 14e, N^1,N^10-Bis(3-((E)-3-(4-methoxyphenyl)acrylamido)propyl)decane-1,10-diaminium 2,2,2-trifluoroacetate]	1.87	38.3	5.64	120	240	≤ 0.3			60	4	>38.3	≤ 0.3	
O=C(C=Cc1ccccc1)NCCCNCCCCNCCCNC(=O)C=Cc1ccccc1.O=C(O)C(F)(F)F.O=C(O)C(F)(F)F [Compound 13a, N^1,N^4-Bis(3-cinnamamidopropyl)butane-1,4-diaminium 2,2,2-trifluoroacetate]	724	> 46.3		724	724	> 46.3	145	5	145	5		> 46.3	
COc1ccc(/C=C/C(=O)NCCCNCCCCNCCCNC(=O)/C=C/c2ccc(OC)c(Br)c2)cc1Br.O=C(O)C(F)(F)F.O=C(O)C(F)(F)F [Compound 15a, N^1,N^4-Bis(3-((E)-3-(3-bromo-4-methoxyphenyl)acrylamido)propyl)butane-1,4-diaminium 2,2,2-trifluoroacetate]	13.8	17.6	< 4.45	55	> 220	2.2	13.7	4	27.5	> 8		≤ 0.28	
COc1ccc(/C=C/C(=O)NCCCNCCCCCCCNCCCNC(=O)/C=C/c2ccc(OC)cc2)cc1.O=C(O)C(F)(F)F.O=C(O)C(F)(F)F [Compound 14c, N^1,N^7-Bis(3-((E)-3-(4-methoxyphenyl)acrylamido)propyl)heptane-1,7-diaminium 2,2,2-trifluoroacetate]	31.5	> 40.4	< 4.39	252	> 252	20.2	126	2	31.5	> 8	>40.4		
COc1c(Br)cc(/C=C/C(=O)NCCCNCCCCCCCCCCNCCCNC(=O)/C=C/c2cc(Br)c(OC)c(Br)c2)cc1Br.O=C(O)C(F)(F)F.O=C(O)C(F)(F)F [Compound 16e, N^1,N^10-Bis(3-((E)-3-(3,5-dibromo-4-methoxyphenyl)acrylamido)propyl)decane-1,10-diaminium 2,2,2-trifluoroacetate]	1.36	27.8	5.70	43.5	87	≤ 0.22			43.5	2	13.6	≤ 0.22	
[H]/N=C(/N)N[C@H]1[C@H](O)[C@@H](O)[C@H](O[C@@H]2O[C@@H](C)[C@](O)(C=O)[C@H]2O[C@@H]2O[C@@H](CO)[C@H](O)[C@@H](O)[C@@H]2NC)[C@@H](N/C(N)=N\[H])[C@@H]1O [streptomycin, reference compound]	21.5 (≈ 12.5 µg/mL)			21.5 (≈ 12.5 µg/mL)	21.5 (≈ 12.5 µg/mL)								
CC/C(=C(\c1ccccc1)c1ccc(OCCN(C)C)cc1)c1ccccc1 [tamoxifen, reference compound]			4.62										
OC(Cn1cncn1)(Cn1cncn1)c1ccc(F)cc1F [fluconazole, reference compound]		0.4 (≈ 0.123 µg/mL)										26 (≈ 7.96 µg/mL)	

— publication PMC10377643, “Exploration of Bis-Cinnamido-Polyamines as Intrinsic Antimicrobial Agents and Antibiotic Enhancers” (Biomolecules, 2023)
